{
  "source": "the pKa sets of Baltruschat and Czodrowski (2020)",
  "data": [
    {"details": "basic group", "values": [
      {"compound": "Oc1ccc(NCc2ccccc2)cc1", "pKa": 5.17},
      {"compound": "O=C([O-])c1cccc2cccnc12", "pKa": 6.99},
      {"compound": "C[NH+](C)Cc1cnc2ccc(-c3ccccc3)nn12", "pKa": 2.99},
      {"compound": "[NH3+]c1ccc(/C=N/NC(=O)c2ccncc2)cc1", "pKa": 3.2},
      {"compound": "C[NH+]1C[C@H](C(=O)O)C[C@@]2(O)c3cccc4[nH]cc(c34)C[C@H]12", "pKa": 3.94},
      {"compound": "Cn1ncc2c(NCCO)ncnc21", "pKa": 3.86},
      {"compound": "Cc1ccc(CN2CC(O[Si](C)(C)C)C2)cc1", "pKa": 8.24},
      {"compound": "NC(=O)CCCc1ccncc1", "pKa": 5.64},
      {"compound": "c1cncc(C2=NCCC2)c1", "pKa": 8.77},
      {"compound": "CCCn1cncn1", "pKa": 2.36},
      {"compound": "Cc1cc([S-])nc([S-])n1", "pKa": 12},
      {"compound": "CNc1ccc(C)cc1", "pKa": 5.36},
      {"compound": "Oc1ccc2ncncc2c1", "pKa": 3.12},
      {"compound": "Cc1ccc(O)c2ncccc12", "pKa": 5.29},
      {"compound": "Nc1ccc(F)cc1", "pKa": 4.64},
      {"compound": "c1cc2[nH]cnc2cn1", "pKa": 6.1},
      {"compound": "Nc1ccnc([O-])n1", "pKa": 12.2},
      {"compound": "C[C@H]1CCCC[C@@H]1N", "pKa": 10.6},
      {"compound": "Cc1ncc(C[NH3+])c(N)n1", "pKa": 4},
      {"compound": "Nc1cccc(I)c1", "pKa": 3.59},
      {"compound": "[NH3+]CCCCCc1ccccn1", "pKa": 5.7},
      {"compound": "Cn1ccnc1N=[N+]=[N-]", "pKa": 4.05},
      {"compound": "CC(N)Cc1ccc2c(c1)OCO2", "note": "(stereo unspecified)", "pKa": 9.67},
      {"compound": "CCC(C)(C)NC1CCCCC1", "pKa": 11.2},
      {"compound": "CN(C)/C=N/c1ccccc1", "pKa": 9},
      {"compound": "CCN1CCC[C@@H]1CNC(=O)c1c([O-])cccc1OC", "pKa": 9.54},
      {"compound": "O=[N+]([O-])c1cnc([O-])[nH+]c1[O-]", "pKa": 5.42},
      {"compound": "CCCNCC(=O)[O-]", "pKa": 10.2},
      {"compound": "CC1=CC(C)=N/C1=C/c1[nH]c(C)cc1C", "pKa": 8.4},
      {"compound": "CCN(CCC#N)CCC#N", "pKa": 4.55},
      {"compound": "CC(C)N1C[Si](C)(C)O[Si](C)(C)C1", "pKa": 10},
      {"compound": "COc1ncc2[nH]cnc2n1", "pKa": 2.44},
      {"compound": "CP(=O)(Cc1ccccc1)c1ccccc1", "note": "(stereo unspecified)", "pKa": -1.82},
      {"compound": "Cn1ncc2c(NCc3ccccc3)ncnc21", "pKa": 3.66},
      {"compound": "O=C([O-])c1ccc2sc(Cn3ccnc3)cc2c1", "pKa": 6.34},
      {"compound": "COc1ncc2ccccc2n1", "pKa": 1.31},
      {"compound": "CCCCN1CCCCC1C", "note": "(stereo unspecified)", "pKa": 10.7},
      {"compound": "Nc1ccc(S(=O)(=O)Nc2ccncn2)cc1", "pKa": 1.3},
      {"compound": "C[NH2+]CCNCC[NH3+]", "pKa": 4.64},
      {"compound": "O=C([O-])c1ccc([N+](=O)[O-])c2cccnc12", "pKa": 4.67},
      {"compound": "OCCN(CCO)Cc1nc2ccccc2[nH]1", "pKa": 5.93},
      {"compound": "CN(C)N(C)C", "pKa": 6.19},
      {"compound": "Nc1ccccc1[NH3+]", "pKa": 1.3},
      {"compound": "[NH3+]c1ccc(-c2cnc(-c3ccc(Br)cc3)o2)cc1", "pKa": 0.26},
      {"compound": "Nc1ncnc2c1cnn2CCO", "pKa": 4.29},
      {"compound": "CN(C)c1ncc([N+](=O)[O-])s1", "pKa": 0.48},
      {"compound": "CN(C)c1ccc2cc3c(ccc4ccccc43)nc2c1", "pKa": 7.31},
      {"compound": "CC(C)CN(C)C", "pKa": 9.91},
      {"compound": "Brc1ccc(-c2cnc(-c3ccccc3)o2)cc1", "pKa": 0.65},
      {"compound": "O=C(O)c1cccc(O)c1", "pKa": -1.01},
      {"compound": "Nc1ccc2cccnc2c1", "pKa": 6.65},
      {"compound": "SCc1c[nH]cn1", "pKa": 6.54},
      {"compound": "CC(=O)N1CCNc2ncnc(C)c21", "pKa": 5.26},
      {"compound": "C#CCNN", "pKa": 5.46},
      {"compound": "CC(N)CC1CCCCC1", "note": "(stereo unspecified)", "pKa": 10.1},
      {"compound": "COc1ccc(F)cc1C(=O)N[C@@H]1C[C@H]2CC[C@@H](C1)N2Cc1ccccc1", "pKa": 8.82},
      {"compound": "CN(C)Cc1ccccc1", "pKa": 8.97},
      {"compound": "Nc1nnnn1-c1ccccc1", "pKa": 1.12},
      {"compound": "c1cnc2ncncc2n1", "pKa": 4.13},
      {"compound": "CCCC(=O)SCCN(C)C", "pKa": 8.32},
      {"compound": "NCCCNCCCN", "pKa": 10.7},
      {"compound": "OC(CN1CCCC1)C[NH+]1CCCC1", "pKa": 7.75},
      {"compound": "[NH3+]Cc1nc2ccccc2[nH]1", "pKa": 3.28},
      {"compound": "Oc1cccc2scnc12", "pKa": 1.25},
      {"compound": "Nc1c2ccccc2nc2cccc([N+](=O)[O-])c12", "pKa": 7.3},
      {"compound": "Nc1ccccc1F", "pKa": 2.96},
      {"compound": "C[C@H]1CCC2CC[C@H](C)N21", "pKa": 11.7},
      {"compound": "Nc1cc[nH+]c([S-])n1", "pKa": 3.32},
      {"compound": "NC(=O)CCc1cccnc1", "pKa": 5.21},
      {"compound": "C#CC(C)(C)N(CC)C(C)(C)C", "pKa": 9.6},
      {"compound": "Nc1ccc2c(c1)-c1ccccc1C2", "pKa": 4.68},
      {"compound": "Cc1cc(CO)c(C)c(C)n1", "pKa": 7.3},
      {"compound": "Cc1cc2ncn([C@H]3O[C@@H](CO)[C@H](O)[C@@H](O)[C@@H]3O)c2cc1C", "pKa": 4.63},
      {"compound": "Nc1ccc(Cl)cn1", "pKa": 4.83},
      {"compound": "Brc1ccc2nc3c(c(N4CCOCC4)c2c1)CCC3", "pKa": 6.38},
      {"compound": "CCCCCCCCCCCCCCN(CC(O)CC)CC(O)CC", "note": "(stereo unspecified)", "pKa": 5.7},
      {"compound": "C[NH+]1CCCC1c1ccc(Cl)nc1", "note": "(stereo unspecified)", "pKa": -1.3},
      {"compound": "c1ccc(-c2ccc[nH+]c2)nc1", "pKa": 1.52},
      {"compound": "CC[NH+](CC)CCNc1nc(C)cc(N)n1", "pKa": 6.97},
      {"compound": "CC(C)CC(N)C(=O)[O-]", "note": "(stereo unspecified)", "pKa": 9.76},
      {"compound": "C=CC(C)(CC)N(C)C(C)C", "note": "(stereo unspecified)", "pKa": 11.3},
      {"compound": "Cc1cc2nc3ccc(N(C)C)cc3nc2cc1N", "pKa": 7.18},
      {"compound": "C#CCNCC#C", "pKa": 6.08},
      {"compound": "COc1nc(N)c2cnn(C)c2n1", "pKa": 3.66},
      {"compound": "CC(C)(S)[C@@H](C(=O)[O-])n1ccnc1Cc1ccccc1", "pKa": 6.98},
      {"compound": "O=Cc1ccncc1O", "pKa": 4.05}
    ]}
  ]
}
